Like-named read-outs stand apart in the source and are kept apart here.
Target: NS3/NS4 complexes (Hepatitis C virus genotype 1a, UniProt P27958)
Experiment: NS3/NS4 inhibition activity (IC50)
Assay type: biochemical
Source text: NS3-NS4 inhibition activity can be determined using known assay methods. For example, NS3/NS4 complexes may be formed and inhibitory concentrations of test compounds determined as described in U.S. Patent Application Publication Number 2007/0054842 paragraph numbers 1497-1509, which is incorporated herein by reference in its entirety. Similarly, hepatitis C replicon EC50 may be determined using known assay methods such as described in U.S. Patent Application Publication Number 2007/0054842 paragraph numbers 1510-1515. Assays may be conducted at ambient temperature (23° C.) in assay buffer containing 50 mM Tris-HCl, pH 7.5, 15% glycerol, 0.6 mM Lauryldimethylamine Oxide (LDAO), 25 μM NS4A peptide, and 10 mM Dithiothreitol (DTT).

Chain of NS3/NS4 complexes (P27958 1027-1657): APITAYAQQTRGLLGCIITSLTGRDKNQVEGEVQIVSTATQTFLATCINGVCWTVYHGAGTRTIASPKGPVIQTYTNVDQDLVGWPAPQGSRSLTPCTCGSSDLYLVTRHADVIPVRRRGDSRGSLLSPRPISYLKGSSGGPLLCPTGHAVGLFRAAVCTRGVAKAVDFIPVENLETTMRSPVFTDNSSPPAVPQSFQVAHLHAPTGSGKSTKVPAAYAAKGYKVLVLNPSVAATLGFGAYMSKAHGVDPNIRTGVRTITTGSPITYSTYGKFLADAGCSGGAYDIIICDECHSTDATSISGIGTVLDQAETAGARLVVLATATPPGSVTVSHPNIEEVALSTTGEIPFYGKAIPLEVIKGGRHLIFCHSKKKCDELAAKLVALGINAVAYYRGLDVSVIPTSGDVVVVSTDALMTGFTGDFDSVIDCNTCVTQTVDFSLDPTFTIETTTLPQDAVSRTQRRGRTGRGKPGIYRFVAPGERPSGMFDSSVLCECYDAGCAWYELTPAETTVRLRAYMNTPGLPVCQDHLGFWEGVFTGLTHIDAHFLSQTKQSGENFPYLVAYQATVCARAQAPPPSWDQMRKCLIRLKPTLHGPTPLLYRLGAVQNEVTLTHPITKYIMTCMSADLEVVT
Chain of NS3/NS4 complexes (P27958 1658-1711): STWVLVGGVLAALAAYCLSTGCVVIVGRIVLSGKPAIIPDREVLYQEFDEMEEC

Row | IC50 (Table 3, read-out: IC50) | Compound | IC50 (IC50, Table 3)
1 | > 100 nM | CC(C)(C)OC(=O)N[C@H]1CCCCC/C=C\[C@@H]2C[C@@]2(C(=O)O)NC(=O)[C@@H]2C[C@@H](Oc3nc4ccc(Cl)cc4o3)CN2C1=O [Compound 1041] | 
2 | 10 to 100 nM | CC(C)(C)OC(=O)N[C@H]1CCCCC/C=C\[C@@H]2C[C@@]2(C(=O)O)NC(=O)[C@@H]2C[C@@H](Oc3nc4cccc(F)c4o3)CN2C1=O [Compound 1042] | 
3 | 10 to 100 nM | CC(C)(C)OC(=O)N[C@H]1CCCCC/C=C\[C@@H]2C[C@@]2(C(=O)O)NC(=O)[C@@H]2C[C@@H](Oc3nc4cc(F)ccc4o3)CN2C1=O [Compound 1043] | 
4 | > 100 nM | Cc1ccc2oc(O[C@@H]3C[C@H]4C(=O)N[C@]5(C(=O)O)C[C@H]5/C=C\CCCCC[C@H](NC(=O)OC(C)(C)C)C(=O)N4C3)nc2c1 [Compound 1044] | 
5 |  | CC(C)(C)OC(=O)N[C@H]1CCCCC/C=C\[C@@H]2C[C@@]2(C(=O)N2CCC[C@H]2C(=O)NCc2ccccc2)NC(=O)[C@@H]2C[C@@H](OC(=O)N3Cc4cccc(F)c4C3)CN2C1=O [Compound 1054] | > 100 nM
6 |  | CC(C)(C)OC(=O)N[C@H]1CCCCC/C=C\[C@@H]2C[C@@]2(C(=O)NCC(=O)NCc2ccccc2)NC(=O)[C@@H]2C[C@@H](O)CN2C1=O [Compound 1055] | > 100 nM
7 |  | CC(C)(C)OC(=O)N[C@H]1CCCCC/C=C\[C@@H]2C[C@@]2(C(=O)N2CCC[C@H]2C(=O)NCc2ccccc2)NC(=O)[C@@H]2C[C@@H](O)CN2C1=O [Compound 1056] | > 100 nM
8 | > 100 nM | CC(=O)O[C@@H]1C[C@H]2C(=O)N[C@]3(C(=O)NCCC(=O)NCc4ccccc4)C[C@H]3/C=C\CCCCC[C@H](NC(=O)OC(C)(C)C)C(=O)N2C1 [Compound 1059] | 
9 |  | CC(=O)O[C@@H]1C[C@H]2C(=O)N[C@]3(C(=O)NCC(=O)NCc4ccccc4)C[C@H]3/C=C\CCCCC[C@H](NC(=O)OC(C)(C)C)C(=O)N2C1 [Compound 1060] | > 100 nM
10 |  | CO[C@@H]1C[C@H]2C(=O)N[C@]3(C(=O)NCC(=O)NCc4ccccc4)C[C@H]3/C=C\CCCCC[C@H](NC(=O)OC(C)(C)C)C(=O)N2C1 [Compound 1063] | > 100 nM
11 |  | CO[C@@H]1C[C@H]2C(=O)N[C@]3(C(=O)N4CCC[C@H]4C(=O)NCc4ccccc4)C[C@H]3/C=C\CCCCC[C@H](NC(=O)OC(C)(C)C)C(=O)N2C1 [Compound 1064] | > 100 nM
12 |  | CN(C)C(=O)O[C@@H]1C[C@H]2C(=O)N[C@]3(C(=O)NCC(=O)NCc4ccccc4)C[C@H]3/C=C\CCCCC[C@H](NC(=O)OC(C)(C)C)C(=O)N2C1 [Compound 1066] | > 100 nM
13 | > 100 nM | CN(C)C(=O)O[C@@H]1C[C@H]2C(=O)N[C@]3(C(=O)NCCC(=O)NCc4ccccc4)C[C@H]3/C=C\CCCCC[C@H](NC(=O)OC(C)(C)C)C(=O)N2C1 [Compound 1067] | 
14 |  | CN(C)C(=O)O[C@@H]1C[C@H]2C(=O)N[C@]3(C(=O)N4CCC[C@H]4C(=O)NCc4ccccc4)C[C@H]3/C=C\CCCCC[C@H](NC(=O)OC(C)(C)C)C(=O)N2C1 [Compound 1068] | > 100 nM
15 |  | CC(C)(C)OC(=O)N[C@H]1CCCCC/C=C\[C@@H]2C[C@@]2(C(=O)N2CCC[C@@H]2C(=O)NCc2ccccc2)NC(=O)[C@@H]2C[C@@H](O)CN2C1=O [Compound 1087] | > 100 nM
16 |  | CC(=O)O[C@@H]1C[C@H]2C(=O)N[C@]3(C(=O)N4CCC[C@@H]4C(=O)NCc4ccccc4)C[C@H]3/C=C\CCCCC[C@H](NC(=O)OC(C)(C)C)C(=O)N2C1 [Compound 1088] | > 100 nM
17 |  | CO[C@@H]1C[C@H]2C(=O)N[C@]3(C(=O)N4CCC[C@@H]4C(=O)NCc4ccccc4)C[C@H]3/C=C\CCCCC[C@H](NC(=O)OC(C)(C)C)C(=O)N2C1 [Compound 1089] | > 100 nM
18 |  | CN(C)C(=O)O[C@@H]1C[C@H]2C(=O)N[C@]3(C(=O)N4CCC[C@@H]4C(=O)NCc4ccccc4)C[C@H]3/C=C\CCCCC[C@H](NC(=O)OC(C)(C)C)C(=O)N2C1 [Compound 1090] | > 100 nM
19 | > 100 nM | CC(C)(C)OC(=O)N[C@H]1CCCCC/C=C\[C@@H]2C[C@@]2(C(=O)NS(=O)(=O)CC(=O)Nc2ccccc2)NC(=O)[C@@H]2C[C@@H](O)CN2C1=O [Compound 1092] | 
20 | > 100 nM | CN(C)C(=O)O[C@@H]1C[C@H]2C(=O)N[C@]3(C(=O)NS(=O)(=O)CC(=O)Nc4ccccc4)C[C@H]3/C=C\CCCCC[C@H](NC(=O)OC(C)(C)C)C(=O)N2C1 [Compound 1095] | 
21 | < 10 nM | CNC(=O)COc1ccccc1S(=O)(=O)NC(=O)[C@@]12C[C@H]1/C=C\CCCCC[C@H](NC(=O)OC(C)(C)C)C(=O)N1C[C@H](OC(=O)N(C)C)C[C@H]1C(=O)N2 [Compound 1097] | 
22 | > 100 nM | CC(=O)O[C@@H]1C[C@H]2C(=O)N[C@]3(C(=O)NS(=O)(=O)CC(=O)Nc4ccccc4)C[C@H]3/C=C\CCCCC[C@H](NC(=O)OC(C)(C)C)C(=O)N2C1 [Compound 1098] | 
23 | < 10 nM | CC(C)n1c(O[C@@H]2C[C@H]3C(=O)N[C@]4(C(=O)NS(=O)(=O)N(C)C)C[C@H]4/C=C\CCCCC[C@H](NC(=O)OC(C)(C)C)C(=O)N3C2)nc2ccncc21 [Compound 1145] | 

From patent US8048862B2, “Macrocyclic inhibitors of hepatitis C virus replication” (priority 2008, dated 2011)
